We go through 19 compounds from US6338963B1, “Use of carbon monoxide dependent guanylyl cyclase modifiers to stimulate neuritogenesis” (NeoTherapeutics, Inc., priority 1994, dated 2002).

In the data set the test system is PC12 cells. Description: Neuritogenesis in PC12 cells. The format is cell-based, rat. The settings on record: for enhancement of NGF-induced neurite outgrowth: in the presence of NGF, 48 hours; for neurite outgrowth in the absence of NGF: compound alone; for effect of inhibitor on NGF neuritogenic activity / effect on neuritogenic properties of the NO donors: PC12 cells with NGF; for effect of inhibitor on neuritogenic effects of guanosine: PC12 cells with guanosine and NGF. The protocol: Much of the work performed in the characterization of the compounds of the present invention involved the use of PC12 cells. These cells are derived from a rat pheochromocytoma and when grown in the presence of NGF, extend neurites, cease cell division and assume many characteristics of sympathetic neurons. When cultured in the absence of nerve growth factor (NGF), few PC12 cells have neurites greater than one cell diameter. Addition of saturating concentrations of NGF for 48 hours stimulates neurite outgrowth in about 20-35% of the cells. Because they constitute a homogeneous population of neuronal-like cells, without contaminating astroglia type cells, it is possible to study the direct effects of the purine based compounds on neurite outgrowth in these cells.
Cells cultured in RPMI 1640 with 1.5% horse serum and 1.5% fetal bovine serum were re-plated onto poly-ornithine coated 24-well culture plates (2.5×10^4 cells per well). AIT-082 and NGF were added to the various cultures immediately upon plating. After 48 hours, medium was removed and the cells irnmediately fixed in 10% formalin and PBS for 10 minutes. Cells and neurites were counted within 2 days of fixation.
A neurite was defined as a process extending from the cell at least 1 cell body diameter in length and displaying a growth cone at its tip. For each treatment, 2 representative microscope fields were counted from each of 6 sister cultures receiving identical treatments. The total number of cells counted per well (approximately 100 cells) and the total number of cells containing neurites in each well were used to determine fraction of neurite-bearing cells. The mean values (±SEM) were then determined for each of the treatments. To facilitate comparison neurite outgrowth was expressed relative to the proportion of cells bearing neurites in the presence of NGF alone (NGF=100%). The effects of compounds with and without NGF were compared by analysis of variance (ANOVA) followed by Tukey's test for significance.
The results are shown in FIG. 3 where the curve represents different levels of AIT-082 plus saturating concentrations (40 ng/ml) NGF. The center horizontal line represents control values for cells cultured in the presence of 40 ng/ml NGF alone. Upper and lower horizontal lines are indicative of confidence limits of NGF alone as determined using standard statistical methods.

No end group written: not given here.

On to `CCOC(=O)CCn1cnc2c(N)ncnc21` [AIT-0026, 3-(6-amino-9H-purin-9-yl)propionic acid, ethyl ester], for which the “modification of neural activity” value is given as “failed to modify neural activity”.
Consider `O=C(CCn1cnc2c(=O)[nH]cnc21)NCCCN1CCCC1=O` [AIT-034, 3-(1,6 dihydro-6-oxo-9hpurin-9-yl)-N-(3-(2-oxopyrrolidin-1-yl)propyl) propanamide], for which the “modification of neural activity” value was “failed to modify neural activity” and the “enhancement of NGF-induced neurite outgrowth” value is on record as “did not enhance NGF-induced neuritogenesis”.
Take `Nc1ncnc2c1ncn2[C@@H]1O[C@H](COP(=O)(O)OP(=O)(O)OP(=O)(O)O)[C@@H](O)[C@H]1O` [ATP, adenosine triphosphate]: the “neurite outgrowth in the absence of NGF” value is reported as “did not enhance neuritogenesis” and the “enhancement of NGF-induced neurite outgrowth” value is “did not enhance neuritogenesis”.
As for `Nc1nc2c(ncn2[C@@H]2O[C@H](COP(=O)(O)OP(=O)(O)O)[C@@H](O)[C@H]2O)c(=O)[nH]1` [GDP, guanosine diphosphate], the “enhancement of NGF-induced neurite outgrowth” value is reported as “neither GDP nor GMP were effective alone or with NGF”.
Same read-out and setting: next, `Nc1nc2c(ncn2[C@@H]2O[C@H](COP(=O)(O)O)[C@@H](O)[C@H]2O)c(=O)[nH]1` [GMP, guanosine monophosphate]: “neither GDP nor GMP were effective alone or with NGF”.
As for `O=C1C(Nc2ccccc2)=CC(=O)c2ncccc21` [LY83583], the “effect of inhibitor on NGF neuritogenic activity” value is listed as “the response elicited by NGF was unaffected” and the “effect of inhibitor on neuritogenic effects of guanosine” value (“effect of inhibitor … of guanosine” below) was “inhibited”.
In the case of `CN(C)c1ccc2nc3ccc(=[N+](C)C)cc-3sc2c1` [Methylene blue], the “effect of inhibitor on NGF neuritogenic activity” value is reported as “no effect on NGF activity” and the “effect of inhibitor … of guanosine” value was “abolished the synergistic effects of guanosine with NGF”. Moreover, the “effect of inhibitor on neuritogenic action of AIT-082” value (“effect of inhibitor … of AIT-082” below) (PC12 cells) is reported as “inhibited the action of AIT-082”. In addition, the “effect of inhibitor on NGF neuritogenic activity” value (listed as MB) was “no effect on NGF-stimulated neurite outgrowth”.
Regarding `CCNC(=O)[C@H]1O[C@@H](n2cnc3c(N)ncnc32)[C@H](O)[C@@H]1O` [NECA, 5′-N-ethylcarboxamidoadenosine], the “neurite outgrowth in the absence of NGF” value was “little stimulation of neurite outgrowth” and the “enhancement of NGF-induced neurite outgrowth” value is listed as “also enhanced neuritogenesis, but not to the same extent as guanosine”. The “effect on the actions of guanosine” value (in the presence and absence of NGF) was “could synergistically enhance the actions of guanosine”.
On to `O=NO` [SN, sodium nitrite], for which the “neurite outgrowth in the absence of NGF” value is “neither SNP nor SN elicited neurite outgrowth” and the “enhancement of NGF-induced neurite outgrowth” value was “enhanced NGF-mediated neurite outgrowth in a synergistic manner”.
Regarding `C=CC1=C(C)c2cc3[n-]c(cc4[n-]c(cc5nc(cc1n2)C(C)=C5C=C)c(C)c4CCC(=O)O)c(CCC(=O)O)c3C.[Zn+2]` [Zinc protoporphyrin IX], the “effect of inhibitor on NGF neuritogenic activity” value is listed as “no effect on NGF activity” and the “effect of inhibitor … of guanosine” value was “abolished the neuritogenic effects of guanosine”. Besides, the “effect of inhibitor … of AIT-082” value (PC12 cells) is given as “inhibited the action of AIT-082”. Further, the “effect of inhibitor on NGF neuritogenic activity” value (listed as ZnPP) was “did not affect those of NGF”.
On to `Nc1ncnc2c1ncn2[C@@H]1O[C@H](CO)[C@@H](O)[C@H]1O` [adenosine], for which the “modification of neural activity” value is on record as “relatively ineffective”, the “neurite outgrowth in the absence of NGF” value was “slightly increased the proportion of cells with neurites” and the “enhancement of NGF-induced neurite outgrowth” value was “did not enhance NGF induced neurite outgrowth at any concentration”.
As to `O=c1[nH]cnc2nc[nH]c12` [hypoxanthine], the “modification of neural activity” value is “relatively ineffective” and the “enhancement of NGF-induced neurite outgrowth” value was “the greatest, although still modest, enhancement”. Also, the “stimulation of neuritogenesis and enhancement of NGF-stimulated neuritogenesis” value (PC12 cells) was “weakly effective”.
With `OC[C@H]1O[C@@H](n2cnc3c(O)ncnc32)[C@H](O)[C@@H]1O` [inosine], the “modification of neural activity” value is “relatively ineffective” and the “enhancement of NGF-induced neurite outgrowth” value is listed as “only slightly enhanced neurite outgrowth”. Besides, where the note is “PC12 cells”, the “stimulation of neuritogenesis and enhancement of NGF-stimulated neuritogenesis” value is reported as “weakly effective”.
In the case of `CCCn1cnc2c1c(=O)n(CCCCC(C)=O)c(=O)n2C` [propentofylline], the “modification of neural activity” value was “failed to modify neural activity”.
Take `O=c1[nH]c(=O)c2[nH]cnc2[nH]1` [xanthine]: the “modification of neural activity” value is “relatively ineffective” and the “enhancement of NGF-induced neurite outgrowth” value was “only slightly enhanced NGF-induced neurite outgrowth”. In addition, the “concentration toxic to the cells” value (PC12 cells) was 300000 µM.
Consider “ANF: atrial natriuretic factor, a hormone activating particulate guanylyl cyclase (SLRRSSCFGGRMDRIGAQSGLGCNSFRY; ends and bridges not checked; cysteine pairing not given here; UniProt P01160 124-151, looked up)”, for which the “enhancement of NGF-induced neurite outgrowth” value is listed as “enhanced NGF-stimulated neurite outgrowth”.
“Methemoglobin: captures and removes nitric oxide (NO) and carbon monoxide (CO) from the culture media”: the “effect of inhibitor on NGF neuritogenic activity” value is given as “no effect on NGF activity” and the “effect on neuritogenic properties of the NO donors” value is given as “inhibited”. Besides, the “effect of inhibitor … of AIT-082” value (PC12 cells) is given as “inhibited the action of AIT-082”.
Regarding copper protoporphyrin IX [CuPP], the “effect of inhibitor … of guanosine” value is on record as “did not reduce the ability of guanosine to enhance NGF-dependent neurite outgrowth”.
Regarding hemoglobin, the “effect on neuritogenic properties of the NO donors” value is listed as “inhibited” and the “effect of inhibitor … of guanosine” value is “inhibited the neuritogenic effects of guanosine”. For the same compound, where the note is “PC12 cells”, the “effect of inhibitor … of AIT-082” value is “inhibited”.
